Data on four compounds can be found in US20030086923A1, “Method for the prevention and/or treatment of atherosclerosis” (priority 1999, published 2003).

As usually defined, the IC50 is the concentration that gives 50% inhibition. Lower therefore signals inhibition by little substance. As a reminder, the EC50 is the concentration at which the effect is half-maximal. A lower EC50 goes with greater potency.

The subject of assay [1] is THP-1 macrophages. Nature of the assay: Stimulation of cholesterol efflux from cultured THP-1 macrophages. It counts as cell-based, human. To be noted: for EC50: Homo sapiens, THP-1. An excerpt:
Stimulation of Cholesterol Efflux from Cultured Cells
Patients with Tangier disease have mutations in the ABC1 gene and have very low HDL levels. Cultured cells from these patients are defective in cholesterol efflux (Francis et al. (1995) J. Clin. Invest. 96:78-87). Therefore, induction of ABC1 mRNA should lead to increased cholesterol efflux and increased HDL levels (Francis et al. (1999) Clinica Chimica Acta 286:219-230). TIIP-1 cells were used to determine whether induction of ABC1 mRNA by Compound 1 would increase cholesterol efflux. Specifically, cultured human THP-1 cells were stimulated to differentiate into macrophages by incubation with 100 nM tetradecanoyl phorbol acetate for three days, as described above. After differentiation, the TUP-1 macrophages were labeled with ^3H-cholesterol by incubation for 24 hours with 10 μCi/ml ^3H-cholesterol in Complete RPMI media containing 0.1% lipid-free bovine serum albumin (BSA) plus 100 nM tetradecanoyl phorbol acetate. After labeling, the cells were incubated for 24 hours in Complete RPMI media with 0.1% lipid-free bovine serum albumin (BSA) to allow for equilibration of cellular cholesterol pools. Cholesterol efflux was then measured over the following 24 hours by incubating the cells in Complete RPMI media containing 10 μg/ml of apoA-I as cholesterol acceptor, and either Compound 1 or DMSO as control.

For assay [2], the system named is LXR. The assay is described as follows: Activity on LXR (assay not specified).
Assay [3] deals with ABC1 mRNA. The assay is described as follows: Induction of ABC1 mRNA levels in THP-1 macrophages. It counts as cell-based. Particulars: Homo sapiens, ABC-1, 15 μM, 6 hours, vs DMSO control, read-out: Fold Induction of ABC1 mRNA (Mean ± SEM). How it is done:
Induction of ABC1 mRNA levels
Cultured human THP-1 cells were used. All cell culture incubations were performed at 37° C. under 95% air/5% carbon dioxide. Cells were grown in Complete RPMI medium plus 10% FCS (Fetal Calf Serum). Complete RPMI medium is defined as RPMI medium (Sigma Cat.# R8005) containing […], 1 mM Na Pyruvate, 2 mM L-Glutamine, and Antibiotic-Antimyotic Solution (Sigma Cat.# A9909: 100U/ml Penicillin, 0.1 mg/ml Streptomycin, 0.251l/ml Amphotericin B). Cells were differentiated into macrophages by incubation in Complete RPMI medium plus 10% FCS (Fetal Calf Serum) plus 100 nM tetradecanoyl phorbol acetate for three days. After differentiation, the THP-1 macrophages were incubated in Complete RPMI medium plus 10% FCS (Fetal Calf Serum) with the test LXR agonist. After 6 hours at 37° C., the cells were harvested and total RNA prepared using the phenol/guanidine isothiocyanate method as supplied and described by Molecular Research Center, Inc. (TRI REAGENTφ Cat. No. TR 118). ABC1 mRNA levels in the total RNA were measured using the TaqMan® mRNA quantitation system, following protocols published by the manufacturer (Perkin-Elmer). The oligonucleotide PCR primers used to detect ABC1 were:
The oligonucleotide probe used was:
ABC1 mRNA levels in each sample were normalized to the mRNA levels for the 23 kDa highly basic protein. […]

For assay [4], the target named is T1, human GST-LXRα receptor (Homo sapiens, UniProt Q13133).
T1 construct: made in house; host or cells: E. coli (pGEX-KT vector)
T1 sequence (Q13133 164-447): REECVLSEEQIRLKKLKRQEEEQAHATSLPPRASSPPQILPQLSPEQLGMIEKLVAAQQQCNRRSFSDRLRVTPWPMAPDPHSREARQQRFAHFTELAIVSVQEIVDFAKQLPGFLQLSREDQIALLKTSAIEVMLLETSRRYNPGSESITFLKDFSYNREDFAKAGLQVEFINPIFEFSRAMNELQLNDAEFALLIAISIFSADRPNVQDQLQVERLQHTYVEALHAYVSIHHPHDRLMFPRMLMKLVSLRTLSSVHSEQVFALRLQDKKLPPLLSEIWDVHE
Nature of the assay: Radioligand competition binding scintillation proximity assay, LXRα. An excerpt:
(§1) Radioligand Competition Binding Scintillation Proximity Assays:
(§2) Preparation of Recombinant Human LXRα and LXRβ:
(§3) Human LXRα and LXRβ were expressed as GST-fusion proteins in E. coli. The ligand binding domain cDNAs for human LXRα (amino acids 164-447) and human LXRβ (amino acids 149-455) were subcloned into the pGEX-KT expression vector (Pharmacia). E. coli containing the respective plasmids were propagated, induced, and harvested by centrifugation. The resuspended pellet was broken in a French press and debris was removed by centrifugation. Recombinant human LXR receptors were purified by affinity chromatography on glutathione sepharose and receptor was eluted with glutathione. Glycerol was added to a final concentration of 50% to stabilize the receptor and aliquots were stored at −80° C.
(§4) After incubation for ˜16 h at 15° C. with shaking, the assay plates were counted in a Packard Topcount.

The target of assay [5] is T2, human GST-LXRβ ligand binding domain receptor (Homo sapiens, UniProt P55055).
T2 construct: human LXRβ (amino acids 149-455) were subcloned into the pGEX-KT expression vector; made in house; host or cells: E. coli (pGEX-KT vector)
T2 sequence (P55055 149-455): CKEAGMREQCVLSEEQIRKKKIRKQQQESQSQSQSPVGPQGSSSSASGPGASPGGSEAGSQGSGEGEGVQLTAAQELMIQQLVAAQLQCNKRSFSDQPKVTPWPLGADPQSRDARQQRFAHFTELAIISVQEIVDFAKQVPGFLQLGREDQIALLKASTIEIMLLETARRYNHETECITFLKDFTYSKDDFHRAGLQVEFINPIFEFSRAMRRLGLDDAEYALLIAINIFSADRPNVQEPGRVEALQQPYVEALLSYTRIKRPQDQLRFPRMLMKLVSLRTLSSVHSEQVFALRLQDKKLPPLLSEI
Nature of the assay: Radioligand competition binding scintillation proximity assay, LXRβ.
From the text: as §1, §2, §3, §4
(In general: In a radioligand displacement assay an active substance lowers the binding of a labelled ligand.)

The target in assay [6] is T3, LXRα-GAL4 fusion protein (Homo sapiens, UniProt Q13133).
T3 construct: expressed in transfected cells; host or cells: HEK-293 (pcDNA3-LXRα/GAL4)
T3 sequence (Q13133 209-447 limits assumed): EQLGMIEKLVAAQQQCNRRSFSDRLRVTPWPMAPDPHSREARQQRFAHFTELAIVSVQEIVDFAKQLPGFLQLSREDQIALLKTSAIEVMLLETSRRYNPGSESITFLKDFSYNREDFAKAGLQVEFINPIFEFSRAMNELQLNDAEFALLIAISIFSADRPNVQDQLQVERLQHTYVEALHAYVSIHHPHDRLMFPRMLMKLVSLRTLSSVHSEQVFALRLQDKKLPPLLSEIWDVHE
Nature of the assay: LXRα/GAL4 transactivation assay in HEK-293 cells. Particulars: 48 h. The class given is cell-based. How it is done:
(§5) Expression constructs were prepared by inserting the ligand binding domain (LBD) of human LXRα and LXRβ cDNAs adjacent to the yeast GAL4 transcription factor DNA binding domain (DBD) in the mammalian expression vector pcDNA3 to create pcDNA3-LXRα/GAL4 and pcDNA3-LXRβ/GAL4, respectively. The GAL4-responsive reporter construct, pUAS(5×)-tk-luc, contained 5 copies of the GAL4 response element placed adjacent to the thymidine kinase minimal promoter and the luciferase reporter gene. The transfection control vector, pEGFP-N1, contained the Green Fluorescence Protein (GFP) gene under the regulation of the cytomegalovirus promoter.
(§6) HEK-293 cells were seeded at 40,000 cells/well in 96 well plates in Dulbecco's modified Eagle medium (high glucose) containing 10% charcoal stripped fetal calf serum (FCS), 100 units/ml Penicillin G and 100 μg/ml Streptomycin sulfate at 37° C. in a humidified atmosphere of 5% CO2. After 24 h, transfections were performed with Lipofectamine (Gibco-BRL, Gaithersburg, Md.) according to the instructions of the manufacturer. […] Luciferase activity in cell extracts was determined using Luciferase Assay Buffer (Promega) in a ML3000 luminometer (Dynatech Laboratories). GFP expression was determined using the Tecan Spectrofluor Plus at excitation wavelength of 485 nm and emission at 535 nm. […]

Assay [7] has as its target T4, LXRβ-GAL4 fusion protein (Homo sapiens, UniProt P55055).
T4 construct: expressed in transfected cells; host or cells: HEK-293 (pcDNA3-LXRβ/GAL4)
T4 sequence (P55055 222-460 limits assumed): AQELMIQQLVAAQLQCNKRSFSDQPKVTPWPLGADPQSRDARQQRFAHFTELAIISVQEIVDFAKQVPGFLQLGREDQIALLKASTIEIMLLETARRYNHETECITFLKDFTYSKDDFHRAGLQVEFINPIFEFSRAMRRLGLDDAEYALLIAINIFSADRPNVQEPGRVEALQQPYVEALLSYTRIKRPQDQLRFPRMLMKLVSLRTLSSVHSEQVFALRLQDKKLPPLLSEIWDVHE
The assay is described as follows: LXRβ/GAL4 transactivation assay in HEK-293 cells. The class given is cell-based. Particulars: 48 h. How it is done: as §5, §6

A short description of assay [8]: HDL-raising activity in hamsters. It counts as in vivo, hamster. Particulars: oral gavage 10 mg per kg twice per day, seven days, p=0.01. How it is done:
HDL-Raising Activity: Hamsters were given Compound 4 by oral gavage at 10 mg per kg body weight, twice per day, for seven days. Blood was then collected and serum HDL cholesterol measured.

As to `CC(C)CC[C@H](O)[C@@H](C)[C@H]1CC[C@H]2[C@@H]3CC=C4C[C@@H](O)CC[C@]4(C)[C@H]3CC[C@]12C` [22-(S)-hydroxy-cholesterol, reference compound], the “Stimulation of cholesterol efflux (in words)” value in assay [1] is “did not stimulate cholesterol efflux at all”. Further, the “Activity on LXR (in words)” value in assay [2] is “inactive”.
With `CC(C)CC[C@@H](O)[C@@H](C)[C@H]1CC[C@H]2[C@@H]3CC=C4C[C@@H](O)CC[C@]4(C)[C@H]3CC[C@]12C` [Compound 2, 22(R)-hydroxycholesterol, reference compound], the fold induction at 15 µM in assay [3] worked out at 6.7 ± 1.2. Further, the “Stimulation of cholesterol efflux” value in assay [1] (5 μM, p<0.001) is listed as 57%.
As to `CC(C)N(C(=O)[C@H]1CCC2C3CC=C4N(C)C(=O)CCC4(C)C3CCC21C)C(C)C` (stereo partly shown) [Compound 3], the IC50 came out at 0.112 µM in assay [4] and 0.442 µM in assay [5]. Also, the EC50 in assay [1] came out at 0.12 µM.
Regarding `CCCc1c(OCCCN2C(=O)CCNC2=O)ccc2c(C(F)(F)F)noc12` [Compound 4, 4,5-Dihydro-1-(3-(3-trifluoromethyl-7-propyl-benzisoxazol-6-yloxy)propyl)-2,6-pyrimidinedione], the half-inhibitory concentration (IC50) in assay [4] was found to be 0.001 µM; in assay [5], 0.072 µM. For the same compound, the figures for the half-maximal effective concentration (EC50) in assay [6], in assay [7] and in assay [1] were 0.183 µM, 0.36 µM and 0.063 µM, respectively. The “Increase of serum HDL cholesterol levels vs vehicle control” value in assay [8] came out at 21%.
